# Assays:
# Assay in all cases: relative viability (nuclei count vs DMSO), 5 days (fraction); higher = more cells survive
# [1] = compound: C1CC2=C(C1)C=C(C=C2)OC3=NC(=C4C(=N3)N(C=N4)CC5=CC=C(C=C5)C6=CC=CC=C6)N[C@@H](CC7=CC=CC=C7)CO [QS11] + Cc1nc(Nc2ncc(C(=O)Nc3c(C)cccc3Cl)s2)cc(N2CCN(CCO)CC2)n1 [Dasatinib] (partner 0.075 µM)
# Summary of the method: (§1)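 Five library-drug doses in √10 steps were combined with a fixed anchor-drug dose, or a single drug was given alone, by pin tool to lung cancer cell lines in 1536-well plates the day after seeding. Nuclei were stained and counted after 5 days. Relative viability is the nuclei count in treated wells over that in vehicle wells, taken as the median of duplicate plates.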
# [2] = compound: CC1=C(C=C(C=C1)NC(=O)C2=CC(=CC=C2)C(C)(C)C#N)NC3=CC4=C(C=C3)N=CN(C4=O)C [AZ628] + Cc1cc(Nc2cc(N3CCN(C)CC3)nc(Sc3ccc(NC(=O)C4CC4)cc3)n2)n[nH]1 [Tozasertib] (partner 0.1 µM)
# Summary of the method: as §1
# [3] = compound: CC1=C(C=C(C=C1)NC(=O)C2=CC(=CC=C2)C(C)(C)C#N)NC3=CC4=C(C=C3)N=CN(C4=O)C [AZ628] + C[C@@H](Oc1cc(-c2cnn(C3CCNCC3)c2)cnc1N)c1c(Cl)ccc(F)c1Cl [Crizotinib] (partner 1 µM)
# Summary of the method: as §1
# [4] = compound: C1CC2=C(C1)C=C(C=C2)OC3=NC(=C4C(=N3)N(C=N4)CC5=CC=C(C=C5)C6=CC=CC=C6)N[C@@H](CC7=CC=CC=C7)CO [QS11] + COc1cccc2cc(-c3nc([C@H]4CC[C@H](C(=O)O)CC4)n4ncnc(N)c34)[nH]c12 [OSI-027] (partner 0.5 µM)
# Summary of the method: as §1
cell line,measurement,setting,value
LCLC-97TM1,relative viability,[1]; first compound 0.08 µM,0.777
same,relative viability,[1]; first compound 0.253 µM,0.932
same,relative viability,[1]; first compound 2.53 µM,0.868
same,relative viability,[1]; first compound 8 µM,1.01
same,relative viability,[2]; first compound 0.08 µM,0.239
same,relative viability,[2]; first compound 0.253 µM,0.202
same,relative viability,[2]; first compound 0.8 µM,0.235
same,relative viability,[2]; first compound 2.53 µM,0.211
same,relative viability,[2]; first compound 8 µM,0.167
same,relative viability,[3]; first compound 0.08 µM,0.741
same,relative viability,[3]; first compound 0.253 µM,0.501
same,relative viability,[3]; first compound 0.8 µM,0.352
same,relative viability,[3]; first compound 2.53 µM,0.413
same,relative viability,[3]; first compound 8 µM,0.205
same,relative viability,[4]; first compound 0.08 µM,0.405
same,relative viability,[4]; first compound 0.253 µM,0.698
same,relative viability,[4]; first compound 2.53 µM,0.565
same,relative viability,[4]; first compound 8 µM,0.588

# From the supplement of paper PMC10307832
